This passage reports IC50 results from ChEMBL document CHEMBL1641451, “Investigation of α-phenylnorstatine and α-benzylnorstatine as transition state isostere motifs in the search for new BACE-1 inhibitors” (Bioorg Med Chem, 2011).

Each structure is given as a SMILES string.

For this assay, the target named is Beta-secretase 1 (Homo sapiens, UniProt P56817). The experiment in a line: Inhibition of BACE1.
Sequence of Beta-secretase 1 (P56817 whole entry): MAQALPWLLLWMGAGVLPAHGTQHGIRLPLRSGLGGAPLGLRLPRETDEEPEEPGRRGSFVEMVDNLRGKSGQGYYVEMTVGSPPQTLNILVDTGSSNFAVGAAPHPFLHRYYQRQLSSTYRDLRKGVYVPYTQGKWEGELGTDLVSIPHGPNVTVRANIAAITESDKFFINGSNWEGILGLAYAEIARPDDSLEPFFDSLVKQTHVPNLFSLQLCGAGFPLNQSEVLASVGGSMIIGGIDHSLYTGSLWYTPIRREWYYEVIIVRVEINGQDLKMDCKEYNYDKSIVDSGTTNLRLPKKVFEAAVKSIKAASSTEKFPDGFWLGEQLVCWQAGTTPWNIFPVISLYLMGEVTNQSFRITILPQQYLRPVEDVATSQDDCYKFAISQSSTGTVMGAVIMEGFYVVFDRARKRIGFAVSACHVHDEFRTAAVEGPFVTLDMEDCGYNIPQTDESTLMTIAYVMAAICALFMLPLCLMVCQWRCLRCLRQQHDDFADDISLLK
What is called IC50 is the concentration needed to halve the response being measured. `CC(C)C[C@H](NC(=O)[C@@H](NC(=O)[C@@H](N)CNC(=O)c1nnn[nH]1)C(C)C)C(=O)NC[C@](O)(CCc1ccccc1)C(=O)Nc1cccc(C(=O)O)c1` displayed an IC50 of 0.19 µM. For `CC(C)C[C@H](NC(=O)[C@@H](NC(=O)[C@@H](N)CNC(=O)c1nnn[nH]1)C(C)C)C(=O)NCC(O)(Cc1ccccc1)C(=O)Nc1cccc(C(=O)O)c1` (stereo partly specified) the value was 0.43 µM; for `CC(C)C[C@H](NC(=O)[C@@H](NC(=O)[C@@H](N)CNC(=O)c1nn[nH]n1)C(C)C)C(=O)NCC(O)(CCc1ccccc1)C(=O)Nc1cccc(C(=O)O)c1` (stereo partly specified), 0.4 µM.

`CC(C)C[C@H](NC(=O)[C@@H](NC(=O)[C@@H](N)CNC(=O)c1nn[nH]n1)C(C)C)C(=O)NC[C@@](O)(CCc1ccccc1)C(=O)Nc1cccc(C(=O)O)c1` returned a 50% inhibitory concentration (IC50) of 1.4 µM. This IC50 lies about 3.5-fold higher than the previous one.

For the molecule `CC(C)[C@H](NC(=O)[C@@H](N)CNC(=O)c1nn[nH]n1)C(=O)N[C@@H](CC1CCCCC1)C(=O)NCC(O)(Cc1ccccc1)C(=O)Nc1cccc(C(=O)O)c1` (stereo partly specified), the midpoint of inhibition, the IC50, lay at 0.68 µM. The value for `CC(C)C[C@H](NC(=O)[C@H](Cc1ccccc1)NC(=O)[C@@H](N)CNC(=O)c1nnn[nH]1)C(=O)NC[C@](O)(CCc1ccccc1)C(=O)Nc1cccc(C(=O)O)c1` was more than 10 µM. For `CC(C)C[C@H](NC(=O)[C@H](Cc1ccccc1)NC(=O)[C@@H](N)CNC(=O)c1nnn[nH]1)C(=O)NC[C@@](O)(CCc1ccccc1)C(=O)Nc1cccc(C(=O)O)c1` the value was more than 10 µM; for `CCCC[C@H](NC(=O)[C@@H](N)CNC(=O)c1nnn[nH]1)C(=O)N[C@@H](CC(C)C)C(=O)NCC(O)(CCc1ccccc1)C(=O)Nc1cccc(C(=O)O)c1` (stereo partly specified), more than 10 µM; for `CC(C)C[C@H](NC(=O)[C@H](CC(C)C)NC(=O)[C@@H](N)CNC(=O)c1nnn[nH]1)C(=O)NCC(O)(CCc1ccccc1)C(=O)Nc1cccc(C(=O)O)c1` (stereo partly specified), more than 10 µM.

With `CC(C)C[C@H](NC(=O)C[C@@H](NC(=O)[C@@H](N)CNC(=O)c1nnn[nH]1)C(C)C)C(=O)NCC(O)(CCc1ccccc1)C(=O)Nc1cccc(C(=O)O)c1` (stereo partly specified), the IC50 is more than 10 µM. The value for `CC(C)C[C@H](NC(=O)[C@@H](NC(=O)[C@H](N)CNC(=O)c1nnn[nH]1)C(C)C)C(=O)NCC(O)(CCc1ccccc1)C(=O)Nc1cccc(C(=O)O)c1` (stereo partly specified) was more than 10 µM; that for `CC(C)C[C@H](NC(=O)[C@@H](NC(=O)[C@@H](N)CN)C(C)C)C(=O)NCC(O)(CCc1ccccc1)C(=O)Nc1cccc(C(=O)O)c1` (stereo partly specified) was more than 10 µM. For `CC(C)C[C@H](NC(=O)[C@@H](NC(=O)[C@@H](CO)NC(=O)c1nn[nH]n1)C(C)C)C(=O)NCC(O)(CCc1ccccc1)C(=O)Nc1cccc(C(=O)O)c1` (stereo partly specified) the value was more than 10 µM; for `CC(C)C[C@H](NC(=O)[C@@H](NC(=O)[C@H](CO)NC(=O)c1nnn[nH]1)C(C)C)C(=O)NCC(O)(CCc1ccccc1)C(=O)Nc1cccc(C(=O)O)c1` (stereo partly specified), more than 10 µM. The molecule `CC(C)C[C@H](NC(=O)[C@@H](NC(=O)[C@@H](N)CNC(=O)c1nn[nH]n1)C(C)C)C(=O)NCC(O)C(=O)Nc1cccc(C(=O)O)c1` (stereo partly specified) yielded a concentration for half-maximal inhibition (IC50) of 0.44 µM. This lies in the sub-micromolar range. With `CC(C)[C@H](NC(=O)[C@@H](NC(=O)[C@@H](N)CNC(=O)c1nnn[nH]1)C(C)C)C(=O)NCC(O)C(=O)Nc1cccc(C(=O)O)c1` (stereo partly specified), the midpoint of inhibition, the IC50, lay at 3 µM. The value for `CC(C)C[C@H](NC(=O)[C@@H](NC(=O)[C@@H](N)CN)C(C)C)C(=O)NCC(O)C(=O)Nc1cccc(C(=O)O)c1` (stereo partly specified) was more than 10 µM; that for `CC(C)C[C@H](NC(=O)[C@@H](NC(=O)[C@H](N)CO)C(C)C)C(=O)NCC(O)C(=O)Nc1cccc(C(=O)O)c1` (stereo partly specified) was more than 10 µM; that for `CC(C)C[C@H](NC(=O)[C@@H](NC(=O)[C@H](N)CNC(=O)c1nn[nH]n1)C(C)C)C(=O)NCC(O)C(=O)Nc1cccc(C(=O)O)c1` (stereo partly specified) was more than 10 µM. With `CC(C)[C@H](NC(=O)[C@@H](NC(=O)[C@@H](CO)NC(=O)c1nn[nH]n1)C(C)C)C(=O)NCC(O)C(=O)Nc1cccc(C(=O)O)c1` (stereo partly specified), the IC50 was more than 10 µM. For `CC(C)C[C@H](NC(=O)[C@@H](NC(=O)[C@@H](N)CNC(=O)c1nnn[nH]1)C(C)C)C(=O)NCCC(=O)Nc1cccc(C(=O)O)c1` the value was 0.87 µM; for `CC(C)C[C@H](NC(=O)[C@@H](NC(=O)[C@H](N)CNC(=O)c1nnn[nH]1)C(C)C)C(=O)NCCC(=O)Nc1cccc(C(=O)O)c1`, more than 10 µM; for `CC(C)C[C@H](NC(=O)[C@@H](NC(=O)[C@@H](CO)NC(=O)c1nnn[nH]1)C(C)C)C(=O)NCCC(=O)Nc1cccc(C(=O)O)c1`, more than 10 µM.

Consider `CC(C)C[C@H](NC(=O)[C@@H](NC(=O)[C@@H](N)CNC(=O)c1nn[nH]n1)C(C)C)C(=O)NCC(O)C(=O)O` (stereo partly specified), for which the concentration for half-maximal inhibition (IC50) turned out to be 6.1 µM. The value for `CC(C)C[C@H](NC(=O)[C@@H](NC(=O)[C@H](CO)NC(=O)c1nnn[nH]1)C(C)C)C(=O)NCCC(=O)Nc1cccc(C(=O)O)c1` was more than 10 µM. The value for `CC(C)C[C@H](NC(=O)[C@@H](NC(=O)[C@@H](N)CNC(=O)c1nnn[nH]1)C(C)C)C(=O)O` was 4.4 µM.
